Experimental findings from ChEMBL document CHEMBL1144041, “Docking-based 3D-QSAR study for 11beta-HSD1 inhibitors” (Bioorg Med Chem Lett, 2008) are described below.

What is called IC50 is the midpoint of a concentration-inhibition curve.

Sequence of 11-beta-hydroxysteroid dehydrogenase 1 (P28845 whole entry): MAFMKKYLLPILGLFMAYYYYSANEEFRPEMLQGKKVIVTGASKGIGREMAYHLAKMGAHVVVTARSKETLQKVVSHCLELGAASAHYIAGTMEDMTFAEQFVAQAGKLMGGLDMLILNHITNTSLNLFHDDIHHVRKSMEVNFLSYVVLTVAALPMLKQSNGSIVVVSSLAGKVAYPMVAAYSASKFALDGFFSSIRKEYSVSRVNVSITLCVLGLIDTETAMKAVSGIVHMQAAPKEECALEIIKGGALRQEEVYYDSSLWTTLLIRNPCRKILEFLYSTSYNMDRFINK

This assay addresses 11-beta-hydroxysteroid dehydrogenase 1 (Homo sapiens, UniProt P28845). Briefly: Inhibition of 11beta-HSD1.
As to `CC(C)(Oc1ccc(Cl)cc1)C(=O)N[C@H]1C2CCCC1C[C@H](C(N)=O)C2`, the IC50 was 21.9 nM.

In turn, `O=C(c1ccc(NCc2ccc(F)cc2)cc1)N1CCC[C@H]2CCCC[C@@H]21` had an IC50 of 50.1 nM. With `CCCc1nnc(C23CC4CC(CC(C4)C2)C3)n1CC`, it took 52.5 nM to reach half-maximal inhibition (IC50).

The molecule `CNc1ccc(C(C)(C)C(=O)N[C@H]2C3CC4CC2C[C@](C(N)=O)(C4)C3)cn1` showed an IC50 of 28.8 nM.

`O=C(Nc1cccc(C(=O)N2CCC[C@H]3CCCC[C@@H]32)c1)c1ccccc1` showed an IC50 of 14.1 nM. `O=C(Nc1ccc(C(=O)N2CCC[C@H]3CCCC[C@@H]32)cc1)c1ccc(Cl)cc1` showed an IC50 of 1100 nM. `CCC1CCCCN1C(=O)c1ccc(NC(=O)c2ccc(Cl)cc2Cl)cc1` (stereo not drawn) had an IC50 of 1070 nM.

`CC(C)(Oc1ccc(N2CCOCC2)cn1)C(=O)N[C@H]1C2CC3CC1C[C@](C(N)=O)(C3)C2` had an IC50 of 43.7 nM. As to `CC(C)(Oc1ccc(C#N)cn1)C(=O)N[C@H]1C2COCC1C[C@H](C(N)=O)C2`, the IC50 was 11 nM.

Molecule `CN1CCN(c2ccc(OC(C)(C)C(=O)N[C@H]3C4CC5CC3C[C@](C(N)=O)(C5)C4)nc2)CC1` had a half-maximal inhibitory concentration (IC50) of 186 nM. Molecule `O=C(Cc1ccccc1)Nc1ccc(C(=O)N2CCC[C@H]3CCCC[C@@H]32)cc1` showed an IC50 of 380 nM. In turn, `CC(C)(Oc1ccc(Cl)cc1)C(=O)N[C@H]1C2CC3CC1C[C@](Cc1nnn[nH]1)(C3)C2` had an IC50 of 40.7 nM.

In turn, `CCCn1c(CC)nnc1C12CC3CC(CC(C3)C1)C2` had an IC50 of 11 nM. Next, `CCCCCC12CCC(c3nnc4n3CCCCC4)(CC1)CC2`: 5.01 nM; `Cn1c(-c2ccc(C=O)cc2Cl)nnc1C12CCC(c3nc(-c4ccc(F)cc4)no3)(CC1)CC2`: 21.9 nM; `O=C(c1ccc(C(=O)N2CCC[C@H]3CCCC[C@@H]32)cc1)N1CCCc2ccccc21`: 182 nM.

Regarding `CC(C)(C(=O)N[C@H]1C2CC3CC1C[C@](C(N)=O)(C3)C2)c1ccc(C#N)cn1`, the IC50 is 14.1 nM. With `CC1CCCCN1C(=O)c1ccc(NC(=O)c2ccc(Cl)cc2Cl)cc1` (stereo not drawn), the IC50 is 7940 nM.

`CCCCn1c(C)nnc1C12CC3CC(CC(C3)C1)C2` had an IC50 of 72.4 nM. In the case of `O=C(Nc1ccc(C(=O)N2CCC[C@H]3CCCC[C@@H]32)cc1)c1ccccc1Cl` it was 1580 nM. `CC(C)(Oc1ccc(C#N)cn1)C(=O)N[C@H]1C2CC3CC1C[C@](C(N)=O)(C3)C2`: the half-maximal inhibitory concentration (IC50) is 28.2 nM. `CC(C)(C(=O)N[C@H]1C2CC3CC1C[C@](C(N)=O)(C3)C2)c1ccc(N2CCOCC2)nc1` showed an IC50 of 46.8 nM. Next, `CC(C)(Oc1ccc(-n2cccn2)cn1)C(=O)N[C@H]1C2CC3CC1C[C@](C(N)=O)(C3)C2`: 5.01 nM.
